Test results as given in patent US6838436B1, “Inhibitors of proteasomal activity for stimulating bone growth” (Osteoscreen Inc., priority 1998, dated 2005).
Where two headings read alike, the source gives them in different places. Where a SMILES comes first, the peptide text is derived from it. [ ]: non-standard residue; d: D form. Nle = CCCC[C@H](N)C(=O)O

Tests used:
mouse BMP2 promoter = test: High throughput screen (ABA assay): BMP2 promoter-luciferase reporter in 2T3-BMP-2-LUC osteoblast cells; assay type: cell-based; conditions: for EC50: Mus musculus, Osteoblast, read-out: Luciferase Activity (ED50-μM)
Description: 1995, the entire contents of which are incorporated herein by reference. This assay is also described as a portion of a study of immortalized murine osteoblasts (derived from a mouse expressing a transgene composed of a BMP2 promoter driving expression of T-antigen) in Ghosh-Choudhery, N., et al., Endocrinology (1996) 137:331-39. In this study, the immortalized cells were stably transfected with a plasmid containing a luciferase reporter gene driven by a mouse BMP2 promoter (−2736/114 bp), and responded in a dose-dependent manner to recombinant human BMP2.
Briefly, the assay utilizes cells transformed permanently or transiently with constructs in which the promoter of a bone morphogenetic protein, specifically BMP2 or BMP4, is coupled to a reporter gene, typically luciferase. These transformed cells are then evaluated for the production of the reporter gene product; compounds that activate the BMP promoter will drive production of the reporter protein, which can be readily assayed. Many thousands of compounds have been subjected to this rapid screening technique, and only a very small percentage are able to elicit a level of expression of reporter gene 5-fold greater than that produced by vehicle. […] The active compounds (“BMP promoter-active compounds” or “active compounds”) are useful in promoting bone or cartilage growth, and thus in the treatment of vertebrates in need of bone or cartilage growth.
Thousands of compounds have been tested in the assay system set forth in U.S. Ser. No. 08/458,434, filed 2 Jun. 1995, and incorporated herein by reference. […] In this screen, the standard positive control was the compound 59-0008 (also denoted “OS8”), which is of the formula: [drawing 22]
In more detail, the 2T3-BMP-2-LUC cells, a stably transformed osteoblast cell line described in Ghosh-Choudhury et al. Endocrinology (1996) 137:331-39, referenced above, was employed. The cells were cultured using α-MEM, 10% FCS with 1% penicillin/streptomycin and 1% glutamine (“plating medium”), and were split 1:5 once per week. For the assay, the cells were resuspended in a plating medium containing 4% FCS, plated in microtiter plates at a concentration of 5×10^3 cells (in 50 μl)/well, and incubated for 24 hours at 37° C. in 5% CO2. To initiate the assay, 50 μl of the test compound or the control in DMSO was added at 2× concentration to each well, so that the final volume was 100 μl. The final serum concentration was 2% FCS, and the final DMSO concentration was 1%. Compound 59-0008 (10 μM) was used as a positive control.
The treated cells were incubated for 24 hours at 37° C. and 5% CO2. The medium was then removed, and the cells were rinsed three times with PBS. After removal of excess PBS, 25 μl of 1× cell culture lysing reagent (Promega #E153A) was added to each well and incubated for at least ten minutes. Optionally, the plates/samples could be frozen at this point. To each well was added 50 μl of luciferase substrate (Promega #E152A; 10 ml Promega luciferase assay buffer per 7 mg Promega luciferase assay substrate). Luminescence was measured on an automated 96-well luminometer, and was expressed as either picograms of luciferase activity per well or as picograms of luciferase activity per microgram of protein.
Accordingly, other tested compounds can be evaluated at various concentrations, and the results compared to the results obtained for 59-0008 at 10 μM (which value would be normalized to 100). Alternatively, the reactivity of a compound to be tested can be compared directly to a negative control containing no compound.

[1] = target: T1, 20S thermophila proteasome (Methanosarcina thermophila, UniProt Q9P992); test: biochemical
T1 construct: purchased CalBiochem, San Diego, Calif
T1 sequence (Q9P992 10-210): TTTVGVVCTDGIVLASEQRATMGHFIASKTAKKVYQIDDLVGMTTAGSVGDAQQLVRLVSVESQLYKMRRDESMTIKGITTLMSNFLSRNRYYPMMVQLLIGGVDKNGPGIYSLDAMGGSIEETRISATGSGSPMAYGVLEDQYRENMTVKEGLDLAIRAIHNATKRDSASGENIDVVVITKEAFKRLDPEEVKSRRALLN
T1 sequence (Q59565 1-247 partner): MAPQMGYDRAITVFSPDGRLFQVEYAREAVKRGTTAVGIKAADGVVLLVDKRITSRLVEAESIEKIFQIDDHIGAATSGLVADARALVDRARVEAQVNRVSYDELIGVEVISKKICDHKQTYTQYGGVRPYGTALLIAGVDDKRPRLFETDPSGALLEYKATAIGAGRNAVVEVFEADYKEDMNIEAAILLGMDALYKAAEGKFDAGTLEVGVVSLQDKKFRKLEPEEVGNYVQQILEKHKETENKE
Experimental: The assay involves incubating the potential inhibitor with 20S thermophila proteasomes which, in purified form, are commercially available, with a fluorogenic peptide substrate. The presence of an inhibitor will reduce the amount of fluorescence generated by the action of the proteasome fraction on the fluorogenic peptide. This assay is described in further detail in Coux, O., et al., N Rev Biochem (1996) 65:801; Adams, J., et al., Cancer Res (1999) 59:2615; and Craiu, A., et al., J Biol Chem (1997) 272:13437. Further reports are set forth in Hilt, W., et al., Trans Biochem Sci (1996) 21:96; Peters, J., Trends Biochem Sci (1994) 19:377; Maupin-Furlow, J. A., et al., J Biol Chem (1995) 270:28617; and Jensen, T. J., et al., Cell (1995) 83:129. Fluorogenic substrates and purified proteasomes are available, for example, from CalBiochem, San Diego, Calif.
Purified 20S thermophila proteasomes and the fluorogenic peptide substrate Suc-Leu-Leu-Val-Tyr-AMC (SEQ ID NO:3) are available from CalBiochem, San Diego, Calif. Briefly, serial dilutions of the inhibitor to be tested were mixed with proteasome solution at a concentration of proteasome of 0.01 mg/ml. After 30 min incubation at 37° C., substrate solution at a final concentration of 25-30 μg/ml was added and the mixture incubated at 37° C. and then read at 15 min, 30 min, and 60 min in a Fluoroscan instrument. The percentage diminution in fluorescence in the presence as compared to the absence of inhibitor is then calculated.

hair follicles = test: Induction of anagen in hair follicles in vivo (Example 12); set-up: species or system C57 black mice
Experimental: Inhibitors of the proteasomal chymotrypsin-like activity were treated for their capacity to induce transit of hair follicles into anagen in vivo in C57 black mice eight weeks of age.

proteasomal activity = conditions: cited from earlier work
neonatal mouse calvaria = test: Neonatal mouse calvaria assay (in vitro / ex vivo) for bone formation; assay type: cell-based, ICR Swiss white mouse; conditions: for EC50: Mus musculus, read-out: Bone Formation (ED50-μM)
Experimental: An assay for bone resorption or bone formation is similar to that described by Gowen M. & Mundy G., J Immunol (1986) 136:2478-82. Briefly, four days after birth, the front and parietal bones of ICR Swiss white mouse pups are removed by microdissection and split along the sagittal suture. In an assay for resorption, the bones are incubated in BGJb medium (Irvine Scientific, Santa Ana, Calif.) plus 0.02% (or lower concentration) β-methylcyclodextrin, wherein the medium also contains test or control substances. The medium used when the assay is conducted to assess bone formation is Fitton and Jackson Modified BGJ Medium (Sigma) supplemented with 6 μg/ml insulin, 6 μg/ml transferrin, 6 ng/ml selenous acid, calcium and phosphate concentrations of 1.25 and 3.0 mM, respectively, and ascorbic acid to a concentration of 100 μg/ml is added every two days. The incubation is conducted at 37° C. in a humidified atmosphere of 5% CO2 and 95% air for 96 hours.
Following this, the bones are removed from the incubation media and fixed in 10% buffered formalin for 24-48 hours, decalcified in 14% EDTA for 1 week, processed through graded alcohols; and embedded in paraffin wax. Three […] sections of the calvaria are prepared. Representative sections are selected for histomorphometric assessment of bone formation or bone resorption. Bone changes are measured on sections cut 200 μm apart. Osteoblasts and osteoclasts are identified by their distinctive morphology.
Selected compounds and appropriate controls were assayed in vitro (ex vivo) for bone formation activity (described above in “Techniques for Neonatal Mouse Calvaria Assay (in vitro)). Histomorphometrical assessments of ex vivo calvaria were carried out using an OsteoMetrics bone morphometry measurement program, according to the manufacturer's instructions. Measurements were determined using either a 10- or 20-fold objective with a standard point counting eyepiece graticule.
New bone formation was determined (using a 10× objective) by measuring the new bone area formed in one field in 3 representative sections of each bone (4 bones per group). Each measurement was carried out ½ field distance from the end of the suture. Both total bone and old bone area were measured. Data were expressed as new bone area in μm^2.
Osteoblast numbers are determined by point counting. The number of osteoblast cells lining the bone surface on both sides of the bone are counted in one field using a 20× objective. Data are expressed as osteoblast numbers/mm of bone surface. […]

[2] = test system: hair follicles of skin explants; test: Cultured skin explants from 5 day old mice, hair follicle diameter and elongation (Example 11); assay type: cell-based, C3H/HeS1c mice; conditions: 10 μM; 72 hours
Experimental: Cultured skin explants from 5 day old mice cultured for 72 hours were treated with proteasome inhibitors, non-proteasomal proteases and non-proteasomal inhibitors of NF-κB and effects on hair follicle diameter and follicle elongation were determined according to the method of Kamiya, T., et al., J Derm Sci (1998) 17:54-60. Skin slices from the dorsal skin of 5 day old C3H/HeS1c mice were cultured in 1 ml of αMEM and 0.1% BSA for 72 hours and then assessed for changes in hair follicle diameter and hair elongation under an inverted microscope, using image analysis. […] Thus, the chymotrypsin-like activity of the proteasome is the catalytic component of the proteasome that is responsible for the effects of these compounds on hair follicle differentiation and hair growth. Only proteasome inhibitors had discernable effects on these parameters.

[3] = read-out: Proteasome Activity (ED50-μM)

c1ccc(N=NC2=NNc3ccccc3S2)cc1 [59-0008, 3-phenylazo-1H-4,1,2-benzothiadiazine]
concentration of maximal reactivity (mouse BMP2 promoter): 3 to 10 µM

CCCC[C@@H](C=O)NC(=O)[C@H](CC(C)C)NC(=O)[C@H](CC(C)C)NC(C)=O [ALLN, N-Acetyl-Leu-Leu-Nle-CHO] (Ac-Leu-Leu-[Nle]-aldehyde)
EC50 (mouse BMP2 promoter): 10 µM
EC50 [1, 3]: 1.5 µM
effect on hair follicles (hair follicles; dose not given): had no effect on hair follicles
effects on proteasomal activity (proteasomal activity): no effects on proteasomal activity

COc1cc(CNC(=O)CCCC/C=C/C(C)C)ccc1O [Capsaicin]
activity in the ABA assay compared with proteasome inhibitors (mouse BMP2 promoter): less active
response in the high throughput luciferase screen (mouse BMP2 promoter): do not give promising responses
EC50 [1]: 30 µM
new bone formation in the in vitro calvarial assay (neonatal mouse calvaria): appeared negative

CN1C(=O)C23CC4=CC=C[C@H](O)C4N2C(=O)C1(CO)SS3 (stereo partly shown) [Gliotoxin]
response in the high throughput luciferase screen (mouse BMP2 promoter): do not give promising responses
new bone formation in the in vitro calvarial assay (neonatal mouse calvaria): did demonstrate the ability to stimulate bone growth
EC50 (neonatal mouse calvaria): 10 µM

CC(C)C[C@H](NC(=O)[C@H](CC(C)C)NC(=O)[C@H](CC(C)C)NC(=O)OCc1ccccc1)B(O)O [MG262]
EC50 (mouse BMP2 promoter): 0.1 µM
EC50 [1, 3]: 0.07 µM
EC50 (neonatal mouse calvaria; calvarial assay in vitro): 0.1 µM

CSCCC(C=O)NC(=O)C(CC(C)C)NC(=O)C(CC(C)C)NC(C)=O (stereo not drawn) [N-Acetyl-Leu-Leu-Meth-CHO, N-Acetyl-Leu-Leu-Met-CHO] (Ac-Leu-Leu-Met-aldehyde; configuration not given here)
EC50 [1]: 4 µM

S=C(S)N1CCCC1 [PDTC, 1-pyrrolidinecarbodithioic acid]
effect on follicle growth [2]: did not significantly affect follicle growth
response in the high throughput luciferase screen (mouse BMP2 promoter): do not give promising responses
effect on hair follicles (hair follicles; dose not given): had no effect on hair follicles
effects on proteasomal activity (proteasomal activity): no effects on proteasomal activity
new bone formation in the in vitro calvarial assay (neonatal mouse calvaria): appeared negative

O=C(NC1=CC(=O)c2ccccc2C1=O)c1ccccc1 [PPM-18, 2-benzoylamino-1,4-naphthoguinone]
effect on hair follicles (hair follicles; dose not given): had no effect on hair follicles
effects on proteasomal activity (proteasomal activity): no effects on proteasomal activity

CC(=O)CCCCn1c(=O)c2c(ncn2C)n(C)c1=O [PTX, pentoxyfilline]
lowest concentration enhancing new bone formation (as low as) (neonatal mouse calvaria): 0.1 μm
new bone formation in the in vitro calvarial assay (neonatal mouse calvaria): active
increase of new bone area (neonatal mouse calvaria; 100 μm): ~3 times that of control
enhancement of new bone area over control (neonatal mouse calvaria; concentration of 10 μm): over 100%

COc1cc(/C=C/C(=O)CC(=O)/C=C/c2ccc(O)c(OC)c2)ccc1O [curcumin]
activity in the ABA assay compared with proteasome inhibitors (mouse BMP2 promoter): less active

CC[C@H](C)C(=O)O[C@H]1C[C@@H](C)C=C2C=C[C@H](C)[C@H](CC[C@@H]3C[C@@H](O)CC(=O)O3)[C@H]21 [lovastatin]
effect on hair follicles (hair follicles; injected locally into the subcutaneous tissue in sufficient concentrations to cause local periosteal bone formation): had no effect on hair follicles
effects on proteasomal activity (proteasomal activity): no effects on proteasomal activity

C=C(C)[C@]12C[C@@H](C)[C@@]34O[C@](Cc5ccccc5)(O[C@@H]1[C@@H]3C=C(COC(=O)Cc1ccc(O)c(OC)c1)C[C@]1(O)C(=O)C(C)=C[C@@H]41)O2 [resiniferatoxin]
activity in the ABA assay compared with proteasome inhibitors (mouse BMP2 promoter): less active

CC[C@H](CO)Nc1nc(NCc2ccccc2)c2ncn(C(C)C)c2n1 [roscovitine]
effect on follicle growth [2]: did not significantly affect follicle growth
response in the high throughput luciferase screen (mouse BMP2 promoter): do not give promising responses
new bone formation in the in vitro calvarial assay (neonatal mouse calvaria): appeared negative
